We go through four compounds from patent US20060141629A1, “Method and system for determining platelet-mediated clot formation” (priority 2004, published 2006).

Experiment [1] has as its system blood from patients receiving coumadin therapy. In words: PT reagent initiated clot formation (CPA), coumadin patients. Type of experiment: cell-based.
Protocol: In this assay PT-fibrinogen reagent (Instrumentation Laboratories) was diluted 1:10 in normal saline containing 0.5% BSA to yield a 10% solution. On the upper cap of a CPA well set attached to a magnetic stirrer 1.6 μl of 1M CaCl2 and 3.8; or 4.0 μl of the diluted PT reagent were added. The stirrer assembly was placed in a CPA well containing 130 μl of whole blood and spinning at about 720 rpm started immediately. The spinning was stopped after 2 min. The well was then washed and stained as described above, and clot % surface coverage and clot average size were determined.
Experiment [2] can be described thus: INR (ratio of PT clotting times) in patients on coumadin. Type of experiment: in vivo. Particulars: patients receiving coumadin therapy; normal INR 0.8-1.3.
In experiment [3] the test system is vitamin K dependent clotting factors (II, VII, IX and X). In words: Level of vitamin K dependent clotting factors on coumadin therapy. Type of experiment: in vivo. The following applies: patient on coumadin therapy, INR=3.0.
Experiment [4] relates to normal blood samples (citrated whole blood). In words: Thrombin dose response of fibrin clot formation (CPA, image analysis). Particulars: FIGS. 2A-2B. Type of experiment: cell-based. The procedure:
In this assay, increasing concentrations of thrombin, which promotes fibrin clot formation, were applied to normal blood samples. In particular, thrombin was placed on the tip of the rotating conical disc, in an amount yielding final concentration according to the points indicated in FIG. 3A and FIG. 3B. The conical disc was then applied in the well containing 130 μL of citrated whole blood, rotated at 720 rpm for two minutes followed by washing and staining of the well. For quantitative determination of fibrin clot formation image analysis (using Impact-R image analysis system, DiaMed, Switzerland) was performed.
Image analysis of the stained fibrin clots was performed expressing the amount of clot in terms of % of surface covered (SC, %), and the average size (AS, μm^2) of the stained clots.

The test system of experiment [5] is whole blood sample from a healthy subject. As to the kind of experiment: Titration of thrombin inhibitor hirudin with thrombin (CPA). Type of experiment: cell-based. The protocol: The levels of thrombin inhibitory drugs such as hirudin and its analogs were determined by titrating the thrombin inhibitor in a whole blood sample with thrombin. To a whole blood sample from a healthy subject hirudin (Sigma) was add to a level of 5×10^−1 anti-thrombin Units/ml. Bovine thrombin (Sigma) (5 Units/ml or 10 Units/ml) was then added to the hirudin treated and untreated whole blood. The thrombin was placed on the upper cap of a CPA well set attached to a magnetic stirrer. The stirrer assembly was placed in a well containing 130 μl of whole blood and spinning at about 720 rpm started immediately. After two min. the spinning was stopped. As described above, the well was washed and stained, and the clot % surface coverage and clot average size determined.

Experiment [6] relates to blood from a patient receiving heparin therapy. As to the kind of experiment: Heparin inhibition of factor Xa clot formation (CPA). Type of experiment: cell-based. The procedure: In the following experiment bovine factor Xa (Sigma) and CaCl2 were used to initiate clot formation in whole blood. On the upper cap of a CPA well set was placed 2.2 μl of a factor Xa solution (7×10^−3 unit/ml) and 1.6 μl of 1M CaCl2. The stirrer assembly was placed in a well containing 130 μl of whole blood and spinning at about 720 rpm started immediately. The spinning was stopped after 2 min. The well was then washed and stained, and the clot % surface coverage and the clot average size were determined.

A short description of experiment [7]: PTT of patient receiving heparin therapy. Particulars: normal 26-34 sec. Type of experiment: in vivo.
Where [8] appears, read: factor Xa and CaCl2 added, FIG. 5D.

Turning to `CC(=O)CC(c1ccccc1)c1c(O)c2ccccc2oc1=O` (centres unmarked) [coumadin], the clot formation result in experiment [1] (blood from coumadin patients, absence of clot initiator or CaCl2, FIG. 4C) is listed as “no clots are formed”; in experiment [1] (blood from coumadin treated patients (INR 3.0), PT reagent added, FIG. 4D), “no clot formation was observed”. Moreover, in experiment [2], the INR turned out to be 3.0. The “vitamin K dependent clotting factors level” value in experiment [3] is reported as 25-40%.

As to “thrombin: Bovine thrombin (Sigma), promotes fibrin clot formation; clot initiator”, the “thrombin added giving sharp increase in both average size and surface coverage” value in experiment [4] was 0.005 IU/ml. The clotting entry in experiment [5] (added thrombin 6×10^−2 Units/ml, whole blood treated with hirudin, FIG. 7D) is “Clotting was observed”. In experiment [5] (thrombin added to the whole blood, FIG. 7C), the “added thrombin concentration at which clotting began” value was 1×10^−2 Units/ml.

hirudin: the clotting entry in experiment [5] (whole blood containing hirudin, thrombin 4×10^−2 Units/ml, FIG. 7B) was “no clotting was observed”.

As for heparin, in experiment [6] (setting [8]), the clot average size stood at 30, the clot formation entry is on record as “no clot formation was observed” and the surface coverage came out at 3.0%. In experiment [6] (no factor Xa or CaCl2, FIG. 5C), the clot average size came out at 24 and the surface coverage is given as 8.2%. The compound further gave a PTT in experiment [7] of 130 s.
